# Measurements: patent EP0252983B1, “SALTS OF N-(VINYLOXIETHYL)DITHIOCARBAMIC ACID, METHOD OF OBTAINING THEREOF AND […] ON THEM” (priority 1985, dated 1987)
# Like-named read-outs stand apart in the source and are kept apart here.
# What was measured:
# Psoroptes cuniculi = experiment: Acaricidal activity on isolated mites; assay type: in vivo
# Description: Die akarizide Aktivität der Stoffe wird an isolierten Milben Psoroptes cuniculi als Erreger der Psoroptesräude bei Kaninchen geprüft. Von frischen Verkrustungen von Kaninchen mit Psoroptesräude, werden zu diesem Zweck 50 Milbenexemplare (Larven, Nymphen, Imago) gewählt und in Petri-Schalen auf ein Filterpapierblatt übertragen. Dann bringt man auf Milben und die ganze Blattoberfläche 1,5 ml zu prüfende wäßrige Stofflösung in destilliertem Wasser auf. Die Schale wird mit Deckel verschlossen und in einen Thermostat bei 30 °C und Feuchtegehalt von 90 % angeordnet. Der Wirkstoff wird als wäßrige Lösung mit einer zwischen 0,0039 und 4 % liegenden Konzentration genommen. Als Vergleichsmuster dient gleichzeitig eine wäßrige Lösung von Chlorophos. Milben werden im Kontrollversuch (Kontrolle auf Lebensfähigkeit)mit 1,5 ml physiologischer Lösung behandelt und in einen anderen Thermostat unter gleichen Temperatur- und Feuchtigkeitsbedingungen aufgestellt.
# Nach 1, 2, 4, 6 Stunden und alle 24 Stunden betrachtet man die Milben im Mikroskop und zählt die toten Milben. Aufgrund der Milbenvernichtung durch einen 24-stündigen Kontakt mit dem Wirkstoff ermittelt man die LK-50 Werte. Die Versuche werden 5mal wiederholt. Arithmetische Mittelwerte gibt Tabelle 14 an.
# Larven von Fichtenböcken = experiment: Insecticidal activity, topical application to larvae; assay type: in vivo, Fichtenböcke; conditions: 10%ige Lösung
# Text: Die hohe insektizide Aktivität von Kalium-N-(vinyloxyathyl)dithiocarbamat und Zink-bis-(N-vinyloxyathyl- dithiocarbamat) wurde in Versuchen an Larven von Fichtenböcken nachgewiesen. Geprüft wurden die 10%igen wäßrigen (oder alkoholischen) Lösungen, welche auf die Kopfbrust von Larven aufgebracht wurden. In Versuchen standen je 20 Larven zur Verfügung. Die Versuche wurden dreimal wiederholt. Die Mortalität wurde nach 1, 24 und 48 Stunden ermittelt. Die insektizide Aktivität der erfindungsgemäßen Stoffe ist bedeutend höher als die von Chlorophos.
# Die Prüfungen auf insektizide Aktivität werden an Larven von Fichtenböcken durchgeführt. Geprüft werden eine 10%ige wäßrige Lösung von Kalium-N-(vinyloxyäthyl)dithiocarbamat und eine 10%ige alkoholische Lösung von Zink-bis-N-(vinyloxyathyldithiocarbamat). In jedem Versuch stehen je 20 Larven zur Verfügung. Die Mortalität wird nach 1, 24 und 48 Stunden ermittelt. Die zu prüfenden Lösungen werden auf die Kopfbrust von Larven aufgebracht.
# Rhizoctonia solani [1] = experiment: Soil fungicide test (fungal discs in treated soil); assay type: cell-based; design: key: Das Vorhandensein (+); das Fehlen (-) des wachsenden Myzels um die Scheibe herum; conditions: 160 mg/kg Boden
# Description: (§1) Eine 50 g schwere Bodenprobe bringt man in ein Glasgefäß ein, sterilisiert innerhalb von 2 Stunden unter einem Druck von 2 atm, gibt dann dem Boden das Präparat als wäßrige Lösung ausgehend von 160 mg/kg zu, wonach in den Boden Scheiben mit Kulturen folgender Pilze Fusarium oxysporum, Verticillium dahliae, Rhizoctonia solani, Pythium ultimum untergebracht werden.
# (§2) Nach 24 und 48 Stunden werden die Scheiben in fließendem Wasser, dann in sterilem Wasser gewaschen, auf sterilem Filterpapier getrocknet und auf eine reine Agarplatte gelegt. Das Vorhandensein (+) oder das Fehlen (-) des wachsenden Myzels um die Scheibe herum wies auf die Wirksamkeit des Präparats. Als Vergleichsmuster diente dabei Karbathion. Die Prüfergebnisse sind in der Tabelle 5 dargestellt.
# Verticillium dahliae [2] = experiment: Soil fungicide test (fungal discs in treated soil); assay type: cell-based; design: key: Das Vorhandensein (+); das Fehlen (-) des wachsenden Myzels um die Scheibe herum; conditions: 160 mg/kg Boden
# Description: as §1, §2
# Pythium ultimum = experiment: Soil fungicide test (fungal discs in treated soil); assay type: cell-based; design: key: Das Vorhandensein (+); das Fehlen (-) des wachsenden Myzels um die Scheibe herum; conditions: 160 mg/kg Boden
# Description: as §1, §2
# Fusarium oxysporum = experiment: Soil fungicide test (fungal discs in treated soil); assay type: cell-based; design: key: Das Vorhandensein (+); das Fehlen (-) des wachsenden Myzels um die Scheibe herum; conditions: 160 mg/kg Boden
# Description: as §1, §2
# Wurzelfäule von Gurken = experiment: Cucumber root rot test in treated non-sterile soil; assay type: in vivo; conditions: 200 kg/ha Wirkstoff
# Text: Man nimmt 100 g unsterilen Boden, enthaltend 1 Teil Humus, 1 Teil Rasenboden, 1 Teil Sand, gibt darin ein Präparat, das Zink-bis-(N-vinyloxyäthyldithiocarbamat) ausgehend von 200 kg/ha Wirkstoff enthält.
# Das Präparat wird wie folgt hergestellt: Einer gesättigten Lösung des genannten Salzes in Azeton gibt man einige Tropfen Emulgiermittel (hydroxyäthylierte Alkylphenole) zu und verdünnt mit Wasser. Innerhalb von 7 bis 8 Tagen begießt man dann bodenhaltige Gefäße mit Wasser, bis der Boden in einen Zustand gebracht wird, der 60% der vollen Wasseraufnahmekapazität des Feldes beträgt. Nach dieser Zeit erfolgt die Aussaat von Gurkensamen, eingequollen im voraus in einer 0,1%igen KMn04-Lösung innerhalb von 2 Stunden. In jedes Gefäß werden je 10 Samen auf eine Tiefe von 1 bis 1,5 cm gesät. Nach 7 bis 9 Tagen berücksichtigt man die Keimungsfähigkeit von Samen, dann bestimmt man nach 3 Tagen den Befallumfang von Pflanzen durch Wurzelfäule, hervorgerufen durch einen Erregerkomplex. Die Versuche werden viermal wiederholt, als Vergleichsmuster dient Milon. Die Prüfergebnisse zeigt Tabelle 9.
# Stereum hirsutum = experiment: Mycelial growth inhibition on agar (contact activity); assay type: cell-based; conditions: Stereum hirsutum, 120 h, Wirkstoffkonzentration 0,003 %
# Description: (§3) Die Prüfungen werden nach dem Verfahren zur Ermittlung der Kontaktaktivität durchgeführt. Man verwendet das in Wasser gelöste Kalium-N-(vinyloxyäthyl)dithiocarbamat, führt es in ein Nährmedium ein und vergießt auf Petri-Schalen. Nach 24 Stunden wird mit Pilzmyzelium nach einem Stichverfahren geimpft. Dann temperiert man die Schalen innerhalb von 5 Tagen bei einer zwischen 24 und 26 °C liegenden Temperatur und mißt den Durchmesser von Pilzkolonien, ermittelt den Prozentsatz der Hemmung des Myzelwachstums (S) ausgehend von Angaben am 5. Tag nach der Abbott-Formel [drawing 13] worin dc für den Durchmesser der Pilzkolonien, de für den Durchmesser von Pilzkolonien in der Schale stehen, wo ein die zu prüfenden Stoffe enthaltendes Medium vorhanden ist. Dieses Verfahren zur Ermittlung der mikrobiologischen Aktivität ist in anderen Beispielen verwendet.
# Paecilomyces varioti = experiment: as above; assay type: cell-based; conditions: Paecilomyces, 120 h, Wirkstoffkonzentration 0,003 %
# Description: as §3
# Penicillium funiculosum = experiment: as above; assay type: cell-based; conditions: Talaromyces funiculosus, 120 h, Wirkstoffkonzentration 0,003 %
# Description: as §3
# Aspergillus niger = experiment: as above; assay type: cell-based
# Chaetomium globosum = experiment: as above; assay type: cell-based; conditions: Chaetomium globosum, 120 h; Wirkstoffkonzentration 0,003 %; Tabelle 3; read-out: Mycelhemmung, in %
# Description: as §3
# Sphaeropsis malorum = experiment: as above; assay type: cell-based; conditions: 120 h; Wirkstoffkonzentration 0,003 %; Würzeagar; Tabelle 7; read-out: Myzelhemmung in %
# Description: as §3
# (§4) Als Nährmedium dient Würzeagar.
# Rhizoctonia solani [3] = experiment: as above; assay type: cell-based; conditions: Rhizoctonia solani, 120 h; Wirkstoffkonzentration 0,003 %; Würzeagar; Tabelle 7; read-out: Myzelhemmung in %
# Description: as §3
# Die fungizide Aktivität von Zink-bis-(N-vinyloxyäthyldithiocarbamat) gegen reine Kulturen von Pilzen Fusarium moniliforme, Fusarium sambucinum, Aspergillus niger, Rhizoctonia solani, Cladosporium resinae, Cladosporium cladosporioides, Acremonium cowum, Acremonium charticola, Penicillium chrysogenum, Penicillium charlesii Smith, Penicillium funiculosum, Geotrichum candidum Link, Walrotiela subiculesa, Oidium sp., Paecilomyces varioti, Stereum hirsutum wird gemäß Beispiel 8 untersucht.
# as §4
# Venturia inaegualis = experiment: as above; assay type: cell-based; conditions: 120 h, Kartoffel-Glukose-Nährmedium, read-out: Myzelhemmung in %
# Description: as §3
# (§5) Tabelle 2 zeigt die Angaben für die fungizide Aktivität von Kalium-N-(vinyloxyäthyl)dithiocarbamat und bekannten wirksamen Fungiziden Poly arbazin und TMTD. Der zu prüfende Stoff wurde im Laufe der Versuche in Wasser aufgelöst, und die Kulturen wurden auf einem Kartoffel-Glukose-Nährmedium gezüchtet.
# Verticillium dahliae [4] = experiment: as above; assay type: cell-based; conditions: 120 h, Kartoffel-Glukose-Nährmedium, read-out: Myzelhemmung in %
# Description: as §3, §5
# Botrytis cinerea = experiment: as above; assay type: cell-based; conditions: 120 h, Kartoffel-Glukose-Nährmedium, read-out: Myzelhemmung in %
# Description: as §3, §5
# Fusarium moniliforme = experiment: as above; assay type: cell-based
# Description: as §3, §5
# Fusarium sambucinum = experiment: as above; assay type: cell-based
# Description: as §3, §5
# [5] = Würzeagar, Tabelle 8, read-out: Myzelhemmung in %
# [6] = Tabelle 3, read-out: Mycelhemmung, in %
# [7] = Wirkstoffkonzentration 0,003 %, Würzeagar, Tabelle 7
smiles,measurement,setting,value
"COP(=O)(OC)C(O)C(Cl)(Cl)Cl (stereo not drawn) [Chlorophos, O,O-Dimethyl-(1-oxy-2,2,2-trichloräthyl)phosphonat, reference compound]",LK-50 %,Psoroptes cuniculi; 24-stündiger Kontakt mit dem Wirkstoff,"0,8%"
same,Vernichtung von 100 % der Milben nach Stunden,"Psoroptes cuniculi; Konzentration 0,5 bis 1,0 %",48 Stunden
same,Vernichtung von 100 % der Milben nach Stunden,"Psoroptes cuniculi; Konzentration 0,25 %",72 Stunden
same,Mortalität von Larven der Fichtenböcke,Larven von Fichtenböcken; Wirkungsdauer 1 Stunde,0%
same,Mortalität von Larven der Fichtenböcke,Larven von Fichtenböcken; Wirkungsdauer 24 Stunden,20%
same,Mortalität von Larven der Fichtenböcke,Larven von Fichtenböcken; Wirkungsdauer 48 Stunden,57%
"CNC(=S)[S-].[Na+] [Karbathion, reference compound]",wachsendes Myzel um die Scheibe,Rhizoctonia solani [1]; Haltedauer 24 Stunden,-
same,wachsendes Myzel um die Scheibe,Rhizoctonia solani [1]; Haltedauer 48 Stunden,-
same,wachsendes Myzel um die Scheibe,Verticillium dahliae [2]; Haltedauer 24 Stunden,-
same,wachsendes Myzel um die Scheibe,Verticillium dahliae [2]; Haltedauer 48 Stunden,-
same,wachsendes Myzel um die Scheibe,Pythium ultimum; Haltedauer 24 Stunden,-
same,wachsendes Myzel um die Scheibe,Pythium ultimum; Haltedauer 48 Stunden,-
same,wachsendes Myzel um die Scheibe,Fusarium oxysporum; Haltedauer 24 Stunden,-
same,wachsendes Myzel um die Scheibe,Fusarium oxysporum; Haltedauer 48 Stunden,-
"CN1CSC(=S)N(C)C1 [Milon, 3,5-Dimethyltetrahydro-1,3,5-thiadizin-1-thion-2, reference compound]",Keimungshäufigkeit in %,Wurzelfäule von Gurken; Gurkensamen,"70,3%"
same,Entwicklung von Krankheiten in %,Wurzelfäule von Gurken; Wurzelfäule von Gurken,0%
"Oc1c(Cl)c(Cl)c(Cl)c(Cl)c1Cl [Pentachlorphenol, reference compound]",inhibition of growth at 0.003 %,Stereum hirsutum; [5],100%
same,inhibition of growth at 0.003 %,Paecilomyces varioti; [5],100%
same,inhibition of growth at 0.003 %,Penicillium funiculosum; [5],100%
same,inhibition of growth at 0.003 %,"Aspergillus niger; Aspergillus niger, 120 h, Wirkstoffkonzentration 0,003 %, Würzeagar, Tabelle 8, read-out: Myzelhemmung in %",100%
"O=C(Nc1ccccc1)c1ccccc1O [Salizylanilid, reference compound]",inhibition of growth at 0.003 %,Stereum hirsutum; [6],100%
same,inhibition of growth at 0.003 %,Paecilomyces varioti; [6],100%
same,inhibition of growth at 0.003 %,Penicillium funiculosum; [6],100%
same,inhibition of growth at 0.003 %,Chaetomium globosum,100%
same,inhibition of growth at 0.003 %,"Aspergillus niger; Aspergillus niger, 120 h, Wirkstoffkonzentration 0,003 %, Tabelle 3, read-out: Mycelhemmung, in %",100%
"CN(C)C(=S)SSC(=S)N(C)C [TMTD, Tetramethylthiuramdisulfid, reference compound]",inhibition of growth at 0.003 %,Sphaeropsis malorum,100%
same,inhibition of growth at 0.003 %,Rhizoctonia solani [3],100%
same,inhibition of growth at 0.01 %,"Venturia inaegualis; Wirkstoffkonzentration 0,01 %",100%
same,inhibition of growth at 0.003 %,"Venturia inaegualis; Wirkstoffkonzentration 0,003 %",100%
same,inhibition of growth at 0.01 %,"Verticillium dahliae [4]; Wirkstoffkonzentration 0,01 %",100%
same,inhibition of growth at 0.003 %,"Verticillium dahliae [4]; Wirkstoffkonzentration 0,003 %",100%
same,inhibition of growth at 0.01 %,"Botrytis cinerea; Wirkstoffkonzentration 0,01 %",100%
same,inhibition of growth at 0.003 %,"Botrytis cinerea; Wirkstoffkonzentration 0,003 %",100%
same,inhibition of growth at 0.01 %,"Fusarium moniliforme; Fusarium verticillioides, 120 h, Wirkstoffkonzentration 0,01 %, Kartoffel-Glukose-Nährmedium, read-out: Myzelhemmung in %",100%
same,inhibition of growth at 0.003 %,"Fusarium moniliforme; Fusarium verticillioides, 120 h, Wirkstoffkonzentration 0,003 %, Kartoffel-Glukose-Nährmedium, read-out: Myzelhemmung in %",100%
same,Myzelhemmung in %,Fusarium moniliforme; [7],100%
same,inhibition of growth at 0.01 %,"Fusarium sambucinum; Fusarium sambucinum, 120 h, Wirkstoffkonzentration 0,01 %, Kartoffel-Glukose-Nährmedium, read-out: Myzelhemmung in %",100%
same,inhibition of growth at 0.003 %,"Fusarium sambucinum; Fusarium sambucinum, 120 h, Wirkstoffkonzentration 0,003 %, Kartoffel-Glukose-Nährmedium, read-out: Myzelhemmung in %",100%
same,Myzelhemmung in %,Fusarium sambucinum; [7],100%
same,inhibition of growth at 0.01 %,"Aspergillus niger; Aspergillus niger, 120 h, Wirkstoffkonzentration 0,01 %, Kartoffel-Glukose-Nährmedium, read-out: Myzelhemmung in %",100%
same,inhibition of growth at 0.003 %,"Aspergillus niger; Aspergillus niger, 120 h, Wirkstoffkonzentration 0,003 %, Kartoffel-Glukose-Nährmedium, read-out: Myzelhemmung in %",100%
same,Myzelhemmung in %,Aspergillus niger; [7],100%
